Test results published in DBAASP.
≈ marks a conversion by molar mass, not a printed value. Blank lines part the entries; values can stand above or below the molecule they belong to.

Experiments:
Assay in all cases: ≥ marks a high value that may be exact or a test limit, other limits are often not marked, values filed in µg/mL are converted to µM
[1] = test system: Bacillus subtilis
[2] = test system: Escherichia coli
[3] = test system: Klebsiella pneumoniae
[4] = test system: Micrococcus luteus
[5] = test system: Proteus mirabilis
[6] = test system: Pseudomonas aeruginosa
[7] = test system: Salmonella typhimurium
[8] = test system: Shigella dysenteriae
[9] = test system: Staphylococcus aureus
[10] = test system: Staphylococcus epidermidis
[11] = test system: Bacillus subtilis ATCC 6633
[12] = test system: Escherichia coli ATCC 25922
[13] = test system: Pseudomonas aeruginosa ATCC 9027
[14] = test system: Salmonella enterica subsp. enterica serovar Typhi ATCC 6399
[15] = test system: Staphylococcus aureus ATCC 25923
[16] = test system: Streptococcus agalactiae
[17] = test system: Botrytis cinerea
[18] = test system: Candida albicans ATCC 10231
[19] = test system: Escherichia coli ATCC 11775
[20] = test system: Staphylococcus aureus ATCC 12600
[21] = test system: Bacillus pumilus CVCC 709
[22] = test system: Bacillus subtilis CVCC 717
[23] = test system: Escherichia coli CVCC 1570
[24] = test system: Micrococcus luteus CVCC 1600
[25] = test system: Staphylococcus aureus CVCC 1882
[26] = test system: Klebsiella pneumoniae ATCC 13883
[27] = test system: Staphylococcus aureus USA 300 LAC
[28] = test system: Candida albicans ATCC 20032
[29] = test system: Candida albicans NCPF 1467
[30] = test system: Staphylococcus aureus NCTC 10788

SMILES: CSCC[C@H](NC(=O)[C@@H](NC(=O)[C@H](C)NC(=O)[C@@H]1CCCN1C(=O)[C@H](CO)NC(=O)[C@@H](N)CC(C)C)C(C)C)C(=O)N[C@@H](C)C(=O)N[C@@H](CO)C(=O)N[C@@H](CC(C)C)C(=O)N[C@@H](C)C(N)=O [LSPAVMASLA]
- MIC [17]: ≥ 200 µM
- MIC [18]: > 200 µM
- MIC [19]: ≥ 200 µM
- MIC [20]: ≥ 200 µM

SMILES: CC[C@H](C)[C@H](NC(=O)[C@H](CO)NC(=O)[C@H](CCCCN)NC(=O)[C@H](CCCN=C(N)N)NC(=O)[C@H](C)NC(=O)[C@H](C)NC(=O)CN)C(=O)N[C@@H](CCCN=C(N)N)C(=O)N[C@@H](CC(C)C)C(=O)N[C@@H](Cc1cnc[nH]1)C(=O)N[C@@H](CCCN=C(N)N)C(=O)N[C@@H](CC(C)C)C(=O)N[C@@H](Cc1ccc(O)cc1)C(=O)N[C@H](C(=O)N[C@@H](Cc1c[nH]c2ccccc12)C(=O)N[C@@H](CCCCN)C(=O)N[C@@H](C)C(=O)N[C@H](C(=O)N[C@H](C(=O)N[C@@H](Cc1ccc(O)cc1)C(=O)N[C@H](C(=O)N[C@@H](CCCN=C(N)N)C(=O)O)[C@@H](C)O)[C@@H](C)CC)[C@@H](C)O)[C@@H](C)O [GAARKSIRLHRLYTWKATIYTR]
- MIC [21]: 9 µM (≈ 24 µg/mL)
- MIC [22]: 13.3 µM (≈ 35.4 µg/mL)
- MIC [23]: 16.7 µM (≈ 44.5 µg/mL)
- MIC [24]: 8 µM (≈ 21.3 µg/mL)
- MIC [25]: 23.3 µM (≈ 62 µg/mL)

SMILES: CC[C@H](C)[C@H](N)C(=O)N[C@@H](CC(C)C)C(=O)NCC(=O)N[C@H](C(=O)N[C@H](C(=O)N[C@H](C(=O)N[C@@H](CO)C(=O)N[C@@H](CC(C)C)C(=O)N[C@@H](CC(C)C)C(=O)N[C@@H](CCCCN)C(=O)N[C@@H](CO)C(=O)N[C@@H](CC(C)C)C(N)=O)[C@@H](C)O)[C@@H](C)CC)[C@@H](C)CC [ILGIITSLLKSL]
- MIC [17]: 0.394 µM (≈ 0.5 µg/mL)
- MIC [18]: 15.7 µM (≈ 20 µg/mL)
- MIC [19]: ≥ 78.7 µM
- MIC [20]: 19.7 µM (≈ 25 µg/mL)

SMILES: CC[C@H](C)[C@H](N)C(=O)N[C@@H](CC(C)C)C(=O)NCC(=O)N[C@@H](CC(C)C)C(=O)N[C@H](C(=O)N[C@H](C(=O)N[C@@H](CO)C(=O)N[C@H](C(=O)N[C@H](C(=O)NCC(=O)N[C@@H](CC(N)=O)C(=O)N[C@H](C(=O)N[C@@H](CC(C)C)C(=O)NCC(=O)NCC(=O)N[C@@H](CC(C)C)C(=O)N[C@@H](CC(C)C)C(=O)N[C@@H](CCCCN)C(=O)N[C@@H](CC(N)=O)C(=O)N[C@@H](CC(C)C)C(N)=O)C(C)C)[C@@H](C)CC)[C@@H](C)O)[C@@H](C)CC)C(C)C [ILGLVISTIGNVLGGLLKNL]
- MIC [11]: ≥ 49.8 µM
- MIC [28]: ≥ 49.8 µM
- MIC [12]: > 49.8 µM
- MIC [15]: > 49.8 µM

SMILES: CC[C@H](C)[C@H](NC(=O)[C@H](C)NC(=O)CNC(=O)[C@H](CC(C)C)NC(=O)[C@@H](N)Cc1ccccc1)C(=O)N[C@@H](C)C(=O)N[C@@H](C)C(=O)N[C@@H](C)C(=O)N[C@@H](CC(C)C)C(=O)N1CCC[C@H]1C(=O)N[C@@H](Cc1cnc[nH]1)C(=O)N[C@H](C(=O)N[C@H](C(=O)N[C@@H](CC(N)=O)C(=O)N[C@@H](C)C(=O)N[C@H](C(=O)N[C@H](C(=O)N[C@@H](CC(N)=O)C(=O)N[C@@H](C)C(=O)N[C@@H](CC(C)C)C(=O)O)[C@@H](C)O)C(C)C)[C@@H](C)CC)C(C)C [FLGAIAAALPHVINAVTNAL]
- MIC [29]: ≥ 120 µM
- MIC [30]: 16 µM (≈ 31.6 µg/mL)

The remaining lines, values ahead:

- MIC [1]: 4.4 µM (≈ 6.3 µg/mL)
- MIC [2]: 8.73 µM (≈ 12.5 µg/mL)
- MIC [3]: 17.5 µM (≈ 25 µg/mL)
- MIC [4]: 1.12 µM (≈ 1.6 µg/mL)
- MIC [5]: ≥ 140 µM
- MIC [6]: 69.8 µM (≈ 100 µg/mL)
- MIC [7]: ≥ 69.8 µM
- MIC [8]: 17.5 µM (≈ 25 µg/mL)
- MIC [9]: 1.12 µM (≈ 1.6 µg/mL)
- MIC [10]: 2.17 µM (≈ 3.1 µg/mL)
SMILES: CC(C)C[C@H](NC(=O)[C@@H](NC(=O)[C@H](CCCCN)NC(=O)[C@H](CO)NC(=O)[C@H](C)NC(=O)[C@@H](NC(=O)[C@H](CCCCN)NC(=O)[C@H](Cc1ccccc1)NC(=O)[C@H](CC(C)C)NC(=O)[C@H](C)NC(=O)CNC(=O)[C@H](CC(C)C)NC(=O)[C@@H](N)Cc1c[nH]c2ccccc12)C(C)C)C(C)C)C(=O)O [WLGALFKVASKVL]

- MIC [11]: 20 µM (≈ 29.9 µg/mL)
- MIC [12]: 20 µM (≈ 29.9 µg/mL)
- MIC [13]: 10 µM (≈ 15 µg/mL)
- MIC [14]: 10 µM (≈ 15 µg/mL)
- MIC [15]: 10 µM (≈ 15 µg/mL)
- MIC [16]: 20 µM (≈ 29.9 µg/mL)
SMILES: CC[C@H](C)[C@H](NC(=O)[C@H](CO)NC(=O)[C@H](CCCCN)NC(=O)[C@H](C)NC(=O)[C@H](C)NC(=O)[C@H](CC(N)=O)NC(=O)[C@H](Cc1c[nH]c2ccccc12)NC(=O)[C@H](CC(C)C)NC(=O)[C@@H](NC(=O)[C@H](CO)NC(=O)[C@H](CC(C)C)NC(=O)[C@@H](N)Cc1ccccc1)[C@@H](C)O)C(=O)N[C@@H](Cc1ccccc1)C(N)=O [FLSTLWNAAKSIF]

- MIC [21]: 13.3 µM (≈ 28.6 µg/mL)
- MIC [22]: 16.7 µM (≈ 35.9 µg/mL)
- MIC [23]: 23.3 µM (≈ 50 µg/mL)
- MIC [24]: 13.3 µM (≈ 28.6 µg/mL)
- MIC [25]: ≥ 133 µM
SMILES: CC(C)[C@H](NC(=O)[C@@H]1CCCN1C(=O)[C@@H]1CCCN1C(=O)[C@@H](NC(=O)[C@@H](N)Cc1ccc(O)cc1)C(C)C)C(=O)N[C@@H](CCC(N)=O)C(=O)N[C@@H](CCCCN)C(=O)N1CCC[C@H]1C(=O)N[C@@H](Cc1cnc[nH]1)C(=O)N1CCC[C@H]1C(=O)N[C@@H](CC(N)=O)C(=O)NCC(=O)N1CCC[C@H]1C(=O)N[C@@H](CCCCN)C(=O)N[C@@H](Cc1ccccc1)C(=O)N1CCC[C@H]1C(=O)N[C@H](C(=O)N[C@@H](Cc1ccccc1)C(=O)N1CCC[C@H]1C(=O)O)[C@@H](C)O [YVPPVQKPHPNGPKFPTFP]

- MIC [12]: 25 µM (≈ 31.8 µg/mL)
- MIC [26]: ≥ 50 µM
- MIC [27]: 6.2 µM (≈ 7.89 µg/mL)
SMILES: CC[C@H](C)[C@H](NC(=O)[C@H](CCCCN)NC(=O)[C@H](CCCN=C(N)N)NC(=O)[C@H](CC(C)C)NC(=O)[C@H](Cc1c[nH]c2ccccc12)NC(=O)[C@@H](N)Cc1c[nH]c2ccccc12)C(=O)N[C@@H](Cc1c[nH]c2ccccc12)C(=O)N[C@@H](Cc1c[nH]c2ccccc12)C(N)=O [WWLRKIWW]

- MIC [11]: ≥ 41.2 µM
- MIC [28]: ≥ 41.2 µM
- MIC [12]: > 41.2 µM
- MIC [15]: 30.9 µM (≈ 75 µg/mL)
SMILES: CC[C@H](C)[C@H](NC(=O)CN)C(=O)NCC(=O)NCC(=O)N[C@@H](C)C(=O)N[C@@H](CC(C)C)C(=O)N[C@@H](CC(C)C)C(=O)N[C@@H](CO)C(=O)N[C@H](C(=O)NCC(=O)N[C@@H](CCCCN)C(=O)N[C@@H](CO)C(=O)N[C@@H](C)C(=O)N[C@@H](CC(C)C)C(=O)N[C@@H](CCCCN)C(=O)NCC(=O)N[C@@H](CC(C)C)C(=O)N[C@H](C(=O)N[C@@H](CCCCN)C(=O)NCC(=O)N[C@@H](CC(C)C)C(=O)N[C@@H](C)C(=O)N[C@@H](CCC(=O)O)C(=O)N[C@@H](Cc1cnc[nH]1)C(=O)N[C@@H](Cc1ccccc1)C(N)=O)[C@@H](C)O)C(C)C [GIGGALLSVGKSALKGLTKGLAEHF]
